In patent US20220387602A1, “BIFUNCTIONAL DEGRADERS AND THEIR METHODS OF USE” (NOVARTIS AG, priority 2019, published 2022):
Where two headings read alike, the source gives them in different places.

Key:
[1] = molecular target: CRBN (Homo sapiens, UniProt Q96SW2); assay: CRBN displacement assay Format 2a (fluorescence polarization, 1536-well, Envision reader); assay type: binding; conditions: for CRBN Amax* (% at 50 μM) Format 2a: greatest effect as % displacement of the reference probe at the highest concentration tested (50 μM), given where AC50 >50 μM
Description: Compounds were tested in the following biochemical and cellular assays.
BodipyFL conjugated lenalidomide compound HH was used as a fluorescent probe. […] Protein and substrate were diluted in assay buffer.
The fluorescence of the Bodipy FL-based probe was excited at 480 nm and the emissions of the product were measured at 535 nm. The fluorescence in each well was excited by 30 flashes per measurement.
For the determination of AC50 values, assays were performed at room temperature in 1536-well plates with a total assay volume of 6.03 μL per well. The test compounds were dissolved and diluted in 100% DMSO. For the assays, 30 nL of DMSO or compound solution were added per well, followed by the addition of 3 μL protein solution (80 nM protein in 1× assay buffer).
The final assay concentration of the protein was nominally 40 nM. After 45 minutes of pre-incubation at room temperature, the competition for binding was started by the addition of 3 μL probe solution (10 nM probe dissolved in assay buffer). The final concentration of the probe in the assays was 5 nM. After the addition of the probe solution, the final DMSO concentration in the assay was 0.5% (v/v). The effect of the probe on the pre-established compound-protein complex equilibrium was determined after 45 minutes (t=45 min). The AC50 value was calculated from the plot of percentage of protein saturation versus the test compound concentration by a logistics fit according to: y=A^2+(A^1−A^2)/(1+(x/AC50)^p), where y is the %-saturation value at the test compound concentration, x. A^1 is the lowest saturation value, i.e., 0%, and A^2 the maximum saturation value, i.e. 100%. The exponent, p, is the Hill coefficient.

[2] = molecular target: T1, BTK (Homo sapiens, UniProt Q06187); assay: BTK-GFP protein abundance flow cytometry assay in HEK293A; assay type: cell-based; conditions: 24 h
T1 construct: the BTK open reading frame (ORF) was first shuttled from a pcDNA-DEST40-BTK vector; expressed in transfected cells; host or cells: HEK293A (Invitrogen R70507), lentiviral transduction, blasticidin selection
Description: Degradation of BTK, CSK, ABL2, EPHA4 and YES1 was measured in HEK293A cells (Invitrogen R70507) expressing either BTK-GFP and RFP, CSK-GFP and mCherry, GFP-ABL2 and mCherry, EPHA4-GFP and mCherry, or YES1-GFP and mCherry from a stably integrated bicistronic BTK-GFP-iresRFP, CSK-GFP-CHYSEL-mCherry, GFP-ABL2-CHYSEL-mCherry, EPHA4-GFP-CHYSEL-mCherry, or YES1-GFP-CHYSEL-mCherry construct, respectively. Reduction of the GFP signal measured by flow cytometry served as readout for BTK, CSK, ABL2, EPHA4 and YES1 degradation after degrader treatment.
The mix was incubated for another 20 min at RT and then added on 1 mL of a freshly prepared suspension of HEK293FT cells in a well of a 6-well plate (concentration 1.2×10^6 cells/mL). 1 day after transfection, the medium was replaced with 1.5 mL of complete growth medium (DMEM high Glucose+10% FCS+1% L-Glutamine+1% NEAA+1% NaPyr.). 48 h post transfection supernatant containing viral transducing particles was collected and frozen at −80° C.
Infection was performed with 90 μL of collected supernatant containing viral transducing particles in 1 mL medium including 8 µg/mL polybrene. 24 h post infection, stably transfected cells were selected with blasticidin at a concentration of 8 μg/mL referred to as stable HEK293A sensor cells.
Stable HEK293A sensor cells were maintained in complete growth medium (DMEM high Glucose+10% FCS+1% L-Glutamine+1% NEAA+1% NaPyr.) with passaging performed twice per week. On Day 0, stable HEK293A sensor cells were seeded at 10,000 cells/well in a 96-well microtiter plate in 260 μL complete medium. On Day 1, cells were treated in duplicate with 10-point 1:3 dilution series of compound using the HP D300 Digital Dispenser (Tecan). DMSO concentrations were normalized across the plate to 0.1%. On Day 2, after 24 h of incubation at 37° C., treatment media was discarded, cells rinsed with 100 μL/well PBS and then detached using 40 μL trypsin/well for 5 min. Trypsin was neutralized with 100 μL/well PBS+20% FCS). Flow cytometry was performed on the samples using the BD FACS CANTO II (Becton Dickinson). Cell identification was then performed using forward (FSC) vs. side scatter (SSC) plots. Single cell discrimination is performed using SSC-Width (SSC-W) vs. SSC-Height (SSC-H) plots. Median GFP values for 5,000 single cells are used to determine BTK levels. Median GFP values from HEK293 Å-iresRFP are used as a background signal and thus defining 0% BTK signal. Median GFP values from DMSO treated HEK293 Å-BTK-GFP-iresRFP are used to define 100% BTK signal for subsequent DC50 curves (concentration at 50% BTK degradation). GFP and RFP are read in the channels called FITC and PE, respectively.
Concentration response curves plotting relative reduction of the GFP signal (measured by flow cytometry) versus 10 compound concentrations (starting concentration 10 μM, 3 fold dilution steps) of the compounds allowed generation of DC50 values. Protein abundance measured for the second generation vectors having a chysel was done in close analogy to the above described method for measuring BTK abundance.
Table 5 columns are defined as follows: DC50 refers to the concentration at which 50% maximal degradation was observed; deg Amax is the extent of degradation and the value refers to the % protein remaining at the concentration at which maximum degradation is seen.

[3] = concentration at which 50% of reference probe Compound HH is displaced, 40 nM protein, 5 nM probe, read-out: CRBN AC50 [μM] Format 2a

Sequence of CRBN (Q96SW2 whole entry): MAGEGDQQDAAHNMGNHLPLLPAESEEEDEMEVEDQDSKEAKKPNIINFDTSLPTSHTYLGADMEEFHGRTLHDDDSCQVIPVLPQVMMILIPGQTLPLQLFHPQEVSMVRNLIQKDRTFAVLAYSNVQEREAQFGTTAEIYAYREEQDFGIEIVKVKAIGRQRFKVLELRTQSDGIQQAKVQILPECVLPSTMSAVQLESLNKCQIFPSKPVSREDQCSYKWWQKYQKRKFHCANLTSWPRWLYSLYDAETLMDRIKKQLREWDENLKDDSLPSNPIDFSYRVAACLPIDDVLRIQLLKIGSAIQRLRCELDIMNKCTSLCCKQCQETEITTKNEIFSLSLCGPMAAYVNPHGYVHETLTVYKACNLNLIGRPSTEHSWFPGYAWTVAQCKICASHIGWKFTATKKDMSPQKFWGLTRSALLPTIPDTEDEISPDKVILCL
T1 sequence (Q06187 whole entry): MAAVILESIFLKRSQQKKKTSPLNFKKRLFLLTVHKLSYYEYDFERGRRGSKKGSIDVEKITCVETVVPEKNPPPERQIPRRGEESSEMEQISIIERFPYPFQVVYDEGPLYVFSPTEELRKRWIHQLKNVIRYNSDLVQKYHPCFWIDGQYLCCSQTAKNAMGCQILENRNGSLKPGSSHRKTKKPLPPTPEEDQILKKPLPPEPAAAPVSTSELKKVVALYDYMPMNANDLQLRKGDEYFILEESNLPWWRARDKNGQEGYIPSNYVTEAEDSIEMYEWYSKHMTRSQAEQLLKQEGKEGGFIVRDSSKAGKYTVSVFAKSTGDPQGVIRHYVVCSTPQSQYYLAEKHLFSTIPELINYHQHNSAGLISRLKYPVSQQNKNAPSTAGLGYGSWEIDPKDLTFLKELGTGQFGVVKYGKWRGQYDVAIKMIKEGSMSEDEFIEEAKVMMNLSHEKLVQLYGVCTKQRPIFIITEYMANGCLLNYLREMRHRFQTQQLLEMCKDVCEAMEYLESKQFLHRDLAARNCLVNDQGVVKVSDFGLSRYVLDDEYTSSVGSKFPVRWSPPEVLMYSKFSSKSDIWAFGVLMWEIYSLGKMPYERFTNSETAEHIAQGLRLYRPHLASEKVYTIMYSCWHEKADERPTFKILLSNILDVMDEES

Row | Compound | AC50 [1, 3] | AC50 [1] | other results
1 | 1-((4-bromo-1H-pyrazol-5-yl)methyl)dihydropyrimidine-2,4(1H,3H)-dione [ILB-88] | > 50 µM | – | CRBN Amax* (% at 50 μM) Format 2a [1]: 37%
2 | Cc1c(NC(=O)c2ccc(C(C)(C)O)cc2F)cc(F)cc1-c1ncnc2[nH]c(-c3ccc(CN4CCN(CCN5CCC(Oc6ccc(N7CCC(=O)NC7=O)cc6)CC5)CC4)cc3)cc12 [Compound 28, N-(3-(6-(4-((4-(2-(4-(4-(2,4-dioxotetrahydropyrimidin-1(2H)-yl)phenoxy)piperidin-1-yl)ethyl)piperazin-1-yl)methyl)phenyl)-7H-pyrrolo[2,3-d]pyrimidin-4-yl)-5-fluoro-2-methylphenyl)-2-fluoro-4-(2-hydroxypropan-2-yl)benzamide] | – | – | BTK degradation Amax ([2]; % protein remaining at the concentration at which maximum degradation is seen, HEK293A): 40%; DC50 ([2]; concentration at which 50% maximal degradation was observed, HEK293A BTK-GFP sensor cells): 0.0092 µM
3 | COc1ccc(C(=O)O)cc1CN1CCC(=O)NC1=O [ILB-9, 3-((2,4-Dioxotetrahydropyrimidin-1(2H)-yl)methyl)-4-methoxybenzoic acid] | – | > 50 µM | CRBN Amax* (% at 50 μM) Format 2a ([1]; 45 min): 1%
4 | C[Si](C)(C)CCOCN1C(=O)CCN(Cc2cccc(C=O)c2)C1=O [ILB-10, 3-((2,4-Dioxo-3-((2-(trimethylsilyl)ethoxy)methyl)tetrahydropyrimidin-1(2H)-yl)methyl)benzaldehyde] | > 50 µM | – | CRBN Amax* (% at 50 μM) Format 2a ([1]; 45 min): 0%
5 | Cc1cc(O)ccc1N1CCC(=O)NC1=O [ILB-13, 1-(4-hydroxy-2-methylphenyl)dihydropyrimidine-2,4(1H,3H)-dione] | – | 2.42 µM | –
6 | O=C(O)COc1ccc(Cl)c(N2CCC(=O)NC2=O)c1 [ILB-17, 2-(4-Chloro-3-(2,4-dioxotetrahydropyrimidin-1(2H)-yl)phenoxy)acetic acid] | 3.41 µM | – | –
7 | O=C1CCN(c2cc(C(=O)O)ccc2O)C(=O)N1 [ILB-22, 3-(2,4-Dioxotetrahydropyrimidin-1(2H)-yl)-4-hydroxybenzoic acid] | 0.69 µM | – | –
8 | O=C1CCN(c2ccc(C#CCCCI)cc2)C(=O)N1 [ILB-39, 1-(4-(5-iodopent-1-yn-1-yl)phenyl)dihydropyrimidine-2,4(1H,3H)-dione] | 3.15 µM | – | –
9 | NCCC#Cc1ccc(N2CCC(=O)NC2=O)cc1 [ILB-44, 1-(4-(4-aminobut-1-yn-1-yl)phenyl)dihydropyrimidine-2,4(1H,3H)-dione] | 5.43 µM | – | –
10 | O=C1CCN(c2ccc(C#CCN3CCC(n4cc(Br)cn4)CC3)cc2)C(=O)N1 [ILB-49, 1-(4-(3-(4-(4-bromo-1H-pyrazol-1-yl)piperidin-1-yl)prop-1-yn-1-yl)phenyl)dihydropyrimidine-2,4(1H,3H)-dione] | 3.36 µM | – | –
11 | CCOC(COc1ccc(N2CCC(=O)NC2=O)c(Cl)c1)OCC [ILB-61, 1-(2-chloro-4-(2,2-diethoxyethoxy)phenyl)dihydropyrimidine-2,4(1H,3H)-dione] | 3.44 µM | – | –
12 | O=C(O)Cn1cc(N2CCC(=O)NC2=O)cn1 [ILB-65, 2-(4-(2,4-Dioxotetrahydropyrimidin-1(2H)-yl)-1H-pyrazol-1-yl)acetic acid] | – | 26.1 µM | –
13 | O=C(O)CCn1cc(N2CCC(=O)NC2=O)cn1 [ILB-66, 3-(4-(2,4-Dioxotetrahydropyrimidin-1(2H)-yl)-1H-pyrazol-1-yl)propanoic acid] | – | > 50 µM | CRBN Amax* (% at 50 μM) Format 2a ([1]; 45 min): 46%
14 | NCCN1CCC(Oc2ccc(N3CCC(=O)NC3=O)cc2)CC1 [ILB-68, 1-(4-((1-(2-aminoethyl)piperidin-4-yl)oxy)phenyl)dihydropyrimidine-2,4(1H,3H)-dione] | 4.7 µM | – | –
15 | CCOC(=O)c1cnc(C)c(N2CCC(=O)NC2=O)c1 [ILB-82, ethyl 5-(2,4-dioxotetrahydropyrimidin-1(2H)-yl)-6-methylnicotinate] | 29.8 µM | – | –
16 | O=C1CCN(Cc2sccc2Br)C(=O)N1 [ILB-83, 1-((3-bromothiophen-2-yl)methyl)dihydropyrimidine-2,4(1H,3H)-dione] | – | 45.6 µM | –
17 | O=C1CCN(Cc2cc(C(F)(F)F)[nH]n2)C(=O)N1 [ILB-84, 1-((5-(trifluoromethyl)-1H-pyrazol-3-yl)methyl)dihydropyrimidine-2,4(1H,3H)-dione] | – | 33.3 µM | –
18 | Cn1cc(Br)c(CN2CCC(=O)NC2=O)n1 [ILB-85, 1-((4-bromo-1-methyl-1H-pyrazol-3-yl)methyl)dihydropyrimidine-2,4(1H,3H)-dione] | – | > 50 µM | CRBN Amax* (% at 50 μM) Format 2a ([1]; 45 min): 47%
19 | O=C1CCN(Cc2nc(C(=O)O)cs2)C(=O)N1 [ILB-87, 2-((2,4-dioxotetrahydropyrimidin-1(2H)-yl)methyl)thiazole-4-carboxylic acid] | – | 5.34 µM | –
20 | O=C1CCN(Cc2ccncc2Br)C(=O)N1 [ILB-89, 1-((3-bromopyridin-4-yl)methyl)dihydropyrimidine-2,4(1H,3H)-dione] | – | 16.7 µM | –
21 | O=C1CCN(Cc2ncc(Br)cn2)C(=O)N1 [ILB-90, 1-((5-bromopyrimidin-2-yl)methyl)dihydropyrimidine-2,4(1H,3H)-dione] | – | > 50 µM | CRBN Amax* (% at 50 μM) Format 2a ([1]; 45 min): 40%
22 | O=C1CCN(Cc2cc(Cl)ccn2)C(=O)N1 [ILB-91, 1-((4-chloropyridin-2-yl)methyl)dihydropyrimidine-2,4(1H,3H)-dione] | – | 5.22 µM | –
23 | O=C1CCN(Cc2cc(Br)ccn2)C(=O)N1 [ILB-92, 1-((4-bromopyridin-2-yl)methyl)dihydropyrimidine-2,4(1H,3H)-dione] | – | 1.85 µM | –
24 | Nc1ncc(Br)cc1CN1CCC(=O)NC1=O [ILB-93, 1-((2-amino-5-bromopyridin-3-yl)methyl)dihydropyrimidine-2,4(1H,3H)-dione] | – | 10.9 µM | –
25 | O=C1CCN(Cc2cccn(C3CCN(C(=O)OCc4ccccc4)CC3)c2=O)C(=O)N1 [ILB-94, Benzyl-4-(3-((2,4-dioxotetrahydropyrimidin-1(2H)-yl)methyl)-2-oxopyridin-1(2H)-yl)piperidine-1-carboxylate] | – | 4.95 µM | –
